Results as given in paper PMC7315737, “The putative Escherichia coli dehydrogenase YjhC metabolises two dehydrated forms of N-acetylneuraminate produced by some sialidases” (Bioscience Reports, 2020).

Target: T1, YjhC (Escherichia coli, UniProt P39353)
T1 construct: gene nanY; full-length ORF from ASKA library in pCA24N, N-terminal His6-tag kept, expressed in E. coli BL21
Test: LC-MS of ligand co-purified with the enzyme
Assay type: binding
Settings: co-purified after metal affinity and gel filtration

T1 sequence (P39353 whole entry): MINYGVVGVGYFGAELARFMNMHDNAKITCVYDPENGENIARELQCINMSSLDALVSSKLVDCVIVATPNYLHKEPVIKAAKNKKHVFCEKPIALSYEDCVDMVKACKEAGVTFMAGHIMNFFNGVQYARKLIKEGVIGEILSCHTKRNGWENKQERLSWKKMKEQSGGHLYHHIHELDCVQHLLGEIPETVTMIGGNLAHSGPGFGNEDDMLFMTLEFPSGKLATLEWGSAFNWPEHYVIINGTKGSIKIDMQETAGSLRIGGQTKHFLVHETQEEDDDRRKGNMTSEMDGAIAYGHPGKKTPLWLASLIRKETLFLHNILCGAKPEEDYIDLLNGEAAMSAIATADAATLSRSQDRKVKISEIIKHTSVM

NC(=O)C1=CN([C@@H]2O[C@H](COP(=O)(O)OP(=O)(O)OC[C@H]3O[C@@H](n4cnc5c(N)ncnc54)[C@H](O)[C@@H]3O)[C@@H](O)[C@H]2O)C=CC1 [NADH]
co-purified ligand detected: presence of small amounts of NAD^+ and NADH
